Measured values as given in patent publication US20250289810A1, “Compounds As NLRP3 Inflammasome Inhibitors And Their Use As Medicaments” (MAM-AGE S.R.L., priority 2022, published 2025).
“Also recorded” adds a separate entry of the source.

Columns and labels:
[1] = preclinical studies; cited from earlier work
[2] = test system: pancreatic adenocarcinoma; conditions: cited from earlier work
[3] = test system: head and neck squamous cell carcinoma; conditions: head and neck squamous cell carcinoma mouse model; cited from earlier work
[4] = test system: chronic myeloid leukemia; conditions: cited from earlier work
[5] = clinical development, phase II; cited from earlier work
[6] = test system: B16-F10cytLUC melanoma cells; assay: Tumor growth of B16-F10cytLUC melanoma cells inoculated subcutaneously in C57BL/6 mice; format: in vivo; conditions: 25 mg/Kg intraperitoneal thrice weekly
Description: A total of 1×10^6 B16-F10 melanoma cells transfected with cytluc (B16-F10cytLUC) were subcutaneously inoculated into females, 6- to 8-week-old C57BL/6 mice. Tumor growth was monitored daily, and tumor volumes were measured every other day with calipers using the following equation: Volume=π/6×(a×b2), where “a” is the major diameter and “b” is the minor diameter. As soon as the mass was palpable, mice were randomly divided (5 mice per group) into the treatment groups and the control group, with 5 mice per group. For NLRP3 inflammasome inhibition, mice were intraperitoneal injected with selected molecules thrice weekly at 25 mg/Kg; control mice received equal volumes of DMSO.
Luciferase luminescence was followed by a total body luminometer (IVIS Lumina, Caliper-PerkinElmer).

[7] = biological target: T1, NLRC4 inflammasome (Mus musculus, UniProt Q3UP24); assay: NLRC4 inflammasome activation in LPS-primed BMDM transfected with flagellin of S. typhimurium (IL-1β ELISA); format: cell-based; conditions: LPS 100 ng/ml 3 hours, compound 1 μm 30 minutes, flagellin 100 ng/ml 2 hours
T1 construct: endogenous in cells; host or cells: mouse BMDM, LPS-primed, transfected with S. typhimurium flagellin
T1 sequence (Q3UP24 whole entry): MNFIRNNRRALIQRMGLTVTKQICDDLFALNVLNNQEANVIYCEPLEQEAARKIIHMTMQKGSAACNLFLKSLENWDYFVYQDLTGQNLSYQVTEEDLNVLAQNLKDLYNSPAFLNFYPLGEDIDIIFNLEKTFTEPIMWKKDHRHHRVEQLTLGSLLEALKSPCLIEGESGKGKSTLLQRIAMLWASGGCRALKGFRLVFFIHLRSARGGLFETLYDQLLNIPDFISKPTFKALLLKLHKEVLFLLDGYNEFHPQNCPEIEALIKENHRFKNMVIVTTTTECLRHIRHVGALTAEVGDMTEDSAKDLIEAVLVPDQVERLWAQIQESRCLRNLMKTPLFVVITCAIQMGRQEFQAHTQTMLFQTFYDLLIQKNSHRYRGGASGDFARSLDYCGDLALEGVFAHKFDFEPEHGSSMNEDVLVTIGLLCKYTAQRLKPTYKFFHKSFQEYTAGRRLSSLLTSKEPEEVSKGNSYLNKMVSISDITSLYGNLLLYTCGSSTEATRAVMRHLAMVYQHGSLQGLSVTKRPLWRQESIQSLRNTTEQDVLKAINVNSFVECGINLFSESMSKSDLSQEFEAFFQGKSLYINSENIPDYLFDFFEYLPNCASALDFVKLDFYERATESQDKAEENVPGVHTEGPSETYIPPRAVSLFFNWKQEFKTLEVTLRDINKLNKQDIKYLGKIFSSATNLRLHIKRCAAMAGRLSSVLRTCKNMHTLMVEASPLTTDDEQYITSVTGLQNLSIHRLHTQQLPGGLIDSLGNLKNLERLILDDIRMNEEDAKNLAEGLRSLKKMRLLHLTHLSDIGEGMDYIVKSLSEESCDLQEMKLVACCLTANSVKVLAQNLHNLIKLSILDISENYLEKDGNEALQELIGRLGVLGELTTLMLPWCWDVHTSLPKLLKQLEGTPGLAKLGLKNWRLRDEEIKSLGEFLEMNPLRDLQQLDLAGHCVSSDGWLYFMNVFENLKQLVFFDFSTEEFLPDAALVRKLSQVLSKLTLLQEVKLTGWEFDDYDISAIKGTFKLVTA
Description: (§1) The selectivity of compound 4 as an inhibitor of NLRP3 was then evaluated with respect to NLRC4 and absent in melanoma 2 (AIM2) inflammasomes. For activation of NLRC4 inflammasome, BMDM were treated with LPS (100 ng/ml) for 3 hours. Subsequently, the culture medium was removed and replaced with a serum-free medium containing compound 4 (1 μm for 30 minutes), finally the cells were transfected with flagellin (100 ng/ml) by S. typhimurium for 2 hours. The supernatant was tested by ELISA. […] The effect of the same compounds was examined on the non-NLR AIM2 inflammasome by transfecting BMDM with the dsDNS analogue Poly (dA:dT).
The selectivity of compounds 6c and 10 of Formula (III) as inhibitors of NLRP3 was then evaluated with respect to NLRC4 inflammasome. For activation of NLRC4 inflammasome, BMDM were treated with LPS (100 ng/ml) for 3 hours. Subsequently the culture medium was removed and replaced with a serum-free medium containing […] (1 μm for 30 minutes), finally the cells were transfected with flagellin (100 ng/ml) by S. typhimurium for 2 hours. The supernatant was tested by ELISA.

[8] = test system: B16-F10 cells; assay: Transwell co-culture of peritoneal macrophages and B16-F10 cells (tumor microenvironment); format: cell-based; conditions: macrophages: LPS 1 μg/mL 2 hours, compound 1 μM 30 minutes, ATP 1 hour; 48 h
Description: (§2) Co-culture of peritoneal macrophages and B16-F10 cells were performed using Transwell chambers with 0.4-μm pores on the membranes (Corning, Corning, NY, USA). Peritoneal macrophages and B16-F10 cells were cultured in the lower and upper compartments of the Transwell chamber, respectively, for 48 h. Peritoneal macrophages were seeded at a density of 2×10^5 cells and treated with LPS (1 μg/mL) for 2 hours, then DMSO or compound 4 (1 μM) of Formula (II) for 30 minutes and finally stimulated with ATP for 1 hour. B16-F10 cells were seeded at a density of 2×10^3 cells each well.
as §2, with “compounds of Formula (III)” for “compound 4”, “μM)” for “μM) of Formula (II)”

[9] = biological target: T2, AIM2 inflammasome (Mus musculus, UniProt Q91VJ1); assay: AIM2 inflammasome activation in BMDM transfected with Poly(dA:dT) (IL-1β secretion); format: cell-based
T2 construct: non-NLR AIM2 inflammasome by transfecting BMDM with the dsDNS analogue Poly (dA:dT); endogenous in cells; host or cells: mouse BMDM transfected with poly(dA:dT)
T2 sequence (Q91VJ1 1-354): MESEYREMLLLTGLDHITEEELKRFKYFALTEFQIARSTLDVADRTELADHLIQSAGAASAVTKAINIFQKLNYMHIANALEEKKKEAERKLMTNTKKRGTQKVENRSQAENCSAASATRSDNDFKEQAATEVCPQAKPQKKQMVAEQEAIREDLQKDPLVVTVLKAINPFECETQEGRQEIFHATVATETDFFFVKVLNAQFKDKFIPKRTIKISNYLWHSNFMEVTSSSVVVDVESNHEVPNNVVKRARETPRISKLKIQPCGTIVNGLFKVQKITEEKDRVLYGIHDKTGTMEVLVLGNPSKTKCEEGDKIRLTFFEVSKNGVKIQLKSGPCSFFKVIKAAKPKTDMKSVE
Description: as §1

[10] = test system: THP-1 cells; assay: RealTime-Glo MT Cell Viability assay on THP-1 cells; format: cell-based, human; conditions: 1 μM, 48 hours
Description: (§3) Cell viability was evaluated on THP-1 cells using realtime-Glo” MT Cell Viability Assay (Promega Italia, MI). Briefly, the cells were seeded in a 96 multiwell (10×10^4 cells/well), treated with the selected compound of Formula (II), and incubated for 48 hours. After treatment, the cells were incubated for 10 minutes in the incubator with the realtime-Glo” reagent following protocol. The luminescence was measured every 12 hours in the Glomax Multi Detection System Promega. The luminescence signal correlates with the number of metabolically active cells.
as §3, with “compound,” for “compound of Formula (II),”, “cells. The results represent the mean luminescence values (RLU)±SEM.” for “cells.”

[11] = test system: B16-F10 melanoma cells; assay: B16-F10 cancer cell proliferation (crystal violet growth curve); format: cell-based; conditions: 1 μM, 5 days
Description: B16-F10 cells were treated with selected inhibitors (1 μM) then were counted with a Burker chamber and plated in five sets of 4 wells of a 24-well plate. Starting from the following day (day 1) 1 set of wells (at days 2, 3, 4 and 5) was washed once with PBS, fixed in 4% formaldehyde solution for 15 min at room temperature, and then kept in PBS at 4° C. At day 5, all the wells were stained with crystal violet for 20 minutes, lysed with 10% acetic acid, then the absorbance was read at 595 nm.

| Effect on activation of NLRC4 inflammasome triggered by flagellin S. typhimurium [7] | Compound | Oral bioavailability [1] | Cell proliferation [2] | Tumor growth [3] | Cell proliferation [4] | Serum liver enzyme levels / hepatotoxicity [5] | Reduction of tumor mass vs vehicle (DMSO) [6] | Growth of B16-F10 cells co-cultured with treated peritoneal macrophages [8] | IL-1β secretion on AIM2 inflammasome activation [9] | Cytotoxicity / cell viability of THP-1 cells [10] | Direct effect on cell proliferation of B16-F10 melanoma cells [11] |
| --- | --- | --- | --- | --- | --- | --- | --- | --- | --- | --- | --- |
| – | CC(C)(O)c1coc(S(=O)(=O)NC(=O)Nc2c3c(cc4c2CCC4)CCC3)c1 [MCC950, N-((1,2,3,5,6,7-hexahydro-s-indacen-4-yl)carbamoyl)-4-(2-hydroxypropan-2-yl)furan-2-sulfonamide] | good oral bioavailability | suppress cell proliferation | delay tumor growth | suppress cell proliferation | hepatotoxicity problems; also recorded: elevation of serum liver enzyme levels | – | – | – | – | – |
| no effect | Nc1ccc(S(=O)(=O)N2Cc3ccccc3C[C@H]2C(=O)Nc2c3c(cc4c2CCC4)CCC3)cc1 [Compound 4 of Formula (II), (S)-2-((4-aminophenyl)sulfonyl)-N-(1,2,3,5,6,7-hexahydro-s-indacen-4-yl)-1,2,3,4-tetrahydroisoquinoline-3-carboxamide] | – | – | – | – | – | about 50% | treated with the vehicle alone grew more than B16-F10 cells in contact with peritoneal macrophages treated with compound 4 | A reduction in the amount of IL-1β secretion was not observe | no cytotoxicity | no direct effect |
